# Patent US20240085426A1, “TRIPLE QUADRUPOLE-BASED MULTIPLE REACTION MONITORING FOR CLINICAL THERAPEUTIC RESPONSE PREDICTION IN CANCER” (NATIONAL CANCER CENTER, priority 2020, published 2024)
# Key:
# KATO-III cell line = test: 72-hour MTT experiment in KATO-III gastric cancer cell line; format: cell-based; details: Homo sapiens, FGFR2-amplified cell line
# SNU-5 cells = test: 72-hour MTT experiment in SNU-5 gastric cancer cell line; format: cell-based; details: Homo sapiens, SNU-5, MET-amplified cell line
IC50 (KATO-III cell line) [nM],IC50 (SNU-5 cells) [nM],SMILES
22.6,17.5,C[C@@H](Oc1cc(-c2cnn(C3CCNCC3)c2)cnc1N)c1c(Cl)ccc(F)c1Cl [crizotinib]
31,> 40,COCc1c(-c2cc3cc(C)cc(OC)c3s2)c2c(N)ncnn2c1CN1CCNC(=O)C1 [rogaratinib]
